Here are results for four compounds from patent US5081123A, “Quinoxaline compound and their preparation and use” (Novo Nordisk A/S, priority 1988, dated 1992).

In brackets after ≈: the same amount, converted by molar mass.

Experiment [1] has as its target quisqualate receptors (quisqualic acid stimulated 3H-GABA efflux, cultured cortical neurones). Kind of experiment: Antagonism of quisqualic acid stimulated 3H-GABA efflux from cultured cortical neurones. The experiment is classed as cell-based, mouse. To be noted: Table 1; test not stated. Here is the method: (§1) The pharmacological properties of the compounds of the present invention can be illustrated by determining their capability for displacing radioactively labelled 2-amino-3-hydroxy-5-methyl-4-isoxazolepropionic acid (AMPA) from the quisqualate type receptors.
The antagonism is measured by determining the EC50 value which represents the concentration which reduces the rate of quisqualic acid stimulated ^3 H-GABA efflux by 50%.
Cerebral cortices of 16 day old mouse embryos are chopped in 0.4×0.4 mm cubes. The tissue is dissociated by mild trypsinization (0.1% (wt/vol) trypsin, 37° C., 15 min) and subsequently inoculated into poly-L-lysine-coated 3 cm Petri dishes containing a slightly modified DMEM (24.5 mM KCl, 30 mM glucose) supplemented with p-aminobenzoate (7μM), insulin (100 mU/1) and 10% (vol/vol) horse serum. Cells are maintained in culture for 5-7 days with the addition of the antimitotic agent cytosine arbinoside (40 μM) from day 2 in vitro to prevent glial proliferation. For further details and references see Drejer et al. Exp. Brain Res. 47, 259 (1982)).
Release experiments are performed using the model described by Drejer et al. (Life Sci. 38, 2077 (1986)). Cerebral cortex interneurons cultured in Petri dishes (30 mm) are added 100 μM gamma-vinyl-GABA one hour before the experiment in order to inhibit degradation of GABA in the neurons. 30 min. before the experiment 5 μCi ^3 H-GABA is added to each culture and after this preloading period the cell monolayer at the bottom of the dish is covered with a piece of nylon mesh to protect the cells against mechanical damage and to facilitate dispersion of medium over the cell layer. The preloading medium is removed and the Petri dishes are placed in a superfusion system. This system consists of a peristaltic pump continuously delivering thermostated 37° C. superfusion medium (HEPES buffered saline (HBS): 10 mM HEPES, 135 mM NaCl, 5 mM KCl, […] 1.0 mM CaCl2 and 6 mM D-glucose; pH 7.4) from a reservoir to the top of the slightly tilted Petri dish. The medium is continuously collected from the lower part of the dish and delivered to a fraction collector. Initially, the cells are superfused with HBS for 15 min. (flow rate 2 ml/min.). The cells are stimulated for 30 sec. every 4 min. by changing the superfusion medium from HBS to a corresponding medium containing quisqualate and test compound. The release of ^3 H-GABA in the presence of quisqualate (stimulated release in cpm) are corrected for the mean basal release (Cpm) before and after the stimulation.

For experiment [2], the target named is quisqualate type receptors (3H-AMPA, rat cerebral cortical membrane homogenate). Kind of experiment: 3H-AMPA binding (displacement from quisqualate type receptors). Particulars: 5 nM 3H-AMPA, 0° C., 30 min, pH 7.1. Here is the method:
as §1
The displacement activity of the compounds may be shown by determining the IC50 value which represents the concentration (μg/ml) which causes a displacement of 50% of the specific binding of ^3 H-AMPA.
500 μl of thawed rat cerebral cortical membrane homogenate in Tris-HCl (30 mM), CaCl2 (2.5 mM) and KSCN (100 mM) pH 7.1 were incubated at 0° C. for 30 min. with 25 μl ^3 H-AMPA (5 nM final concentration) and the test compound and buffer. Nonspecific binding was determined by incubation with L-glutamic acid (600 μM final concentration). The binding reaction was terminated by adding 5 ml of ice-cold buffer followed by filtration through Whatman GF/C glass fibre filters and 2×5 ml wash with ice-cold buffer. Bound radioactivity was measured by scintillation counting. IC50 was determined by Hill analysis of at least four concentrations of test compound.

For `O=c1[nH]c2c3ccccc3ccc2n(O)c1=O` [Example 1b, 4-Hydroxy-benzo[f]quinoxaline-2,3(1H,4H)-dione], the half-maximal effective concentration (EC50) in experiment [1] was found to be 0.12 µg/mL (≈ 0.526 µM). Besides, in experiment [2], the “IC50 (concentration which causes a displacement of 50% of the specific binding of 3H-AMPA)” value was 0.61 µg/mL.
`N#Cc1cc2c([nH]c(=O)c(=O)n2O)c2ccccc12` [Example 2c, 6-Cyano-4-hydroxy-benzo[f]quinoxaline-2,3(1H,4H)-dione] had a half-maximal effective concentration (EC50) in experiment [1] of 0.1 µg/mL (≈ 0.395 µM). In addition, in experiment [2], the “IC50 (concentration which causes a displacement of 50% of the specific binding of 3H-AMPA)” value came out at 0.39 µg/mL.
Take `O=c1[nH]c2c3cccnc3ccc2n(O)c1=O` [Example 4b, 4-Hydroxypyrido[3,2-f]quinoxaline-2,3(1H,4H)-dione]: in experiment [1], the EC50 was determined as 0.16 µg/mL (≈ 0.698 µM). The “IC50 (concentration which causes a displacement of 50% of the specific binding of 3H-AMPA)” value in experiment [2] worked out at 0.23 µg/mL.
On the same counts, the results for `O=c1[nH]c2c3c(ccc2n(O)c1=O)CCCC3` [Example 5b, 7,8,9,10-Tetrahydro-4-hydroxybenzo[f]quinoxaline-2,3(1H,4H)-dione] are 0.14 µg/mL (≈ 0.603 µM) and 0.49 µg/mL.
